The values that follow come from patent US5703072A, “Bicyclic nonane and decane compounds having dopamine receptor affinity” (Allelix Biopharmaceuticals, priority 1996, dated 1997).

Assay [1] has as its target T1, human D2 receptor (short isoform) (Homo sapiens, UniProt P14416).
T1 construct: 3H-spiperone displacement
In words: D2 receptor binding (displacement of 3H-spiperone) relative to D4: D2/D4 selectivity. Particulars: D2/D4 ratio. The protocol:
(§1) The potency of the test compound to reduce ^3 H-spiperone binding directly correlated to its binding affinity for the receptor.
GH4 C1 (rat pituitary) cells stably transfected with the human D2 receptor (short isoform) were grown in CO2 independent media in roller bottles (1500 cm^2) for 10 days. 100 μM ZnSO4 was added to the cells (the D2 promoter being zinc inducible). After 16 hours, fresh media was added to allow the cells to recover for 24 hours. The cells were harvested using versine and then centrifuged in a Sorval centrifuge for 10 minutes, at 5000 rpm (GS3 rotor). Pellets were quickly frozen in liquid nitrogen and stored at -80° C. until used in the binding assays. When used in the assay, cells were thawed on ice for 20 minutes. […] The receptor protein concentration was determined using the Pierce BCA assay.
(§2) The tubes were vortexed and incubated at room temperature for 90 minutes. The binding reaction was stopped by filtering using a Brandell Cell Harvester. The samples were filtered under vacuum over glass fibre filters (Whatman GF/B) presoaked for 2 hours in 0.3% polyethylenimine (PEI) in 50 mM Tris buffer (pH 7.4). The filters were then washed 3 times with 5 ml ice cold 50 mM Tris buffer (pH 7.4). Individual filter disks were put in scintillation vials (Biovials, Bechman). Ready Protein Plus liquid scintillant (5 ml, Beckman) was added and the vials counted by liquid scintillation spectrophotometry (Beckman LSC 6500) after equilibrating for three hours at room temperature to determine total binding (BT).
This assay employed the same procedures as the non-specific binding assay for D4 with the exception that 2 μM (final conc.) of (-) sulpiride (Research Chemicals Inc.) was used in place of dopamine.
(§3) The incubation was started by the addition to 12×75 mm polypropylene tubes 500 μl (50 μg protein) membrane homogenate to a solution of 400 μl incubation buffer, 100 μl ([…].) ^3 H-spiperone (90 Ci/mmol, Amersham, diluted in borosilicate glass vial to) and 500 μl of test compound that was prepared from 1 mM stock dissolved in DMSO and stored at -20° C. in polypropylene cryogenic storage vials until dilution in incubation buffer in borosilicate glass vials. The tubes were vortexed and incubated at room temperature for 90 minutes at which time the binding reaction was stopped by filtering. The filters were washed and counted using the same procedure as in the total binding assay described above to give the displacement binding value (BD).
(§4) IC50 was determined from an inhibition response curve, logit-log plot of %B/B0 vs concentration of test compound.
(§5) Ki was calculated by the Cheng and Prustoff transformation: Ki=IC50 /(1+[L]/KD) where [L] is the concentration of ^3 H-spiperone used in the assay and KD is the dissociation constant of ^3 H-spiperone determined independently under the same binding conditions.

The target of the next assay is T2, human D4 receptors (Homo sapiens, UniProt P21917).
T2 construct: expressed in transfected cells; host or cells: CHO Pro 5 cells, stably expressing
T2 sequence (P21917 1-419): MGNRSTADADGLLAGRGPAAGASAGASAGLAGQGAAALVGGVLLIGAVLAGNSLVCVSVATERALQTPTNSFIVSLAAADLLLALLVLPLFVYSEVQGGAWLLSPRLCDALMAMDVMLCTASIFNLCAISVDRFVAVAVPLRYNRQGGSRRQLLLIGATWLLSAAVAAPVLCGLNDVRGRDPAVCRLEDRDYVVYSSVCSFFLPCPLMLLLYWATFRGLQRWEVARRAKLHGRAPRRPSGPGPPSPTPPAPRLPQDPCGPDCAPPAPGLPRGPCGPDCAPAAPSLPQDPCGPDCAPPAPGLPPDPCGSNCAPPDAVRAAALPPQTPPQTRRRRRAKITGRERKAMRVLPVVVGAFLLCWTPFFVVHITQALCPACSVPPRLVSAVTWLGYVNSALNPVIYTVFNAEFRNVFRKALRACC
In words: Antagonist assay: reversal of dopamine inhibition of forskolin-stimulated adenyl cyclase (cAMP) in CHO Pro 5 cells. It is filed as cell-based. To be noted: dopamine and forskolin both 10 μM; for inhibition at 1 µM: test compound 1 μM, read-out: % REVERSAL OF DOPAMINE EFFECT, 1 μM; for inhibition at 10 µM: test compound 10 μM, read-out: % REVERSAL OF DOPAMINE EFFECT, 10 μM. The protocol: The D4 receptor responds to dopamine and other agonists by reducing adenyl cyclase mediated production of cyclic AMP. Particular test compounds were assayed for their ability to reverse dopamine inhibition of adenyl cyclase by the following procedure. Forskolin was used to elevate the basal adenyl cyclase activity.
CHO Pro 5 cells stably expressing human D4 receptors were plated in 6 well plates in DMEM (Dulbecco's Modified Eagle Medium)/F12(Nutrient Mixture F12 (Ham)) media with 10% FCS (fetal calf serum) and G418 (Geneticen Disulfate), and incubated at 37° C. in a CO2 incubator. The cells were allowed to grow to about 70% confluence before use in the assay.
The culture media of each well was removed by aspiration, and the wells were washed once with serum free media (SFM) (DMEM/F12) media. Then 2 mL of fresh SFM+IBMX media (SFM with 0.5 mM IBMX (3-isobutyl-1-methylxanthine0.1% ascorbic acid and 10 μM pargyline) was added to each well and then incubated at 37° C. for 10 minutes in CO2 incubator. Following incubation, SFM+IBMX media was aspirated and fresh SFM+IBMX media was added to wells separately with one of a) forskolin (10 μM final conc.); b) dopamine and forskolin (both 10 μM final conc.); […]), and dopamine and forskolin (both 10 μM final conc.). Basal adenyl cyclase activity was determined from wells with only SFM+IBMX media added.
The cells were then incubated at 37° C. for 30 minutes in a CO2 incubator. Following incubation the media was aspirated from each well and then washed once with 2 mL of PBS (phosphate buffered saline). […] The cells from each well were then scraped and transferred into individual Eppendorf tubes. The tubes were centrifuged for 5 min at 4° C., and the supernatants were transferred to new Eppendorf tubes. The pellets were discarded and the supernatants dried using a SpeedVac. The extracts were then reconstituted in 600 μL of 0.1M sodium acetate buffer, pH 6.1, and stored at 4° C. until assayed for cAMP concentration. cAMP content measured in fmoles/well for each extract was determined by EIA (enzyme-immunoassay) using Amersham Biotrak cAMP EIA kit (Amersham RPN 225).
Total inhibition (I0) of forskolin-stimulated adenyl cyclase activity by dopamine was determined as the difference in concentration of cAMP in the forskolin-treated cells (Cf) and dopamine-forskolin treated cells (Cd).
Net inhibition (I) of forskolin-stimulated adenyl cyclase activity by dopamine in the presence of an antagonist was determined as the difference in concentration of cAMP in the forskolin-treated cells (Cf) and test compound, dopamine and forskolin treated cells (C).

The target of assay [2] is T3, human D4 receptor (D4.2 sub-type) (Homo sapiens, UniProt P21917, DEL265-296).
T3 construct: expressed in transfected cells; host or cells: HEK 298 (human embryonic kidney) cells (so in the source); homogenate of stably transfected cells
T3 sequence (P21917 with tags, fused parts or gaps DEL265-296): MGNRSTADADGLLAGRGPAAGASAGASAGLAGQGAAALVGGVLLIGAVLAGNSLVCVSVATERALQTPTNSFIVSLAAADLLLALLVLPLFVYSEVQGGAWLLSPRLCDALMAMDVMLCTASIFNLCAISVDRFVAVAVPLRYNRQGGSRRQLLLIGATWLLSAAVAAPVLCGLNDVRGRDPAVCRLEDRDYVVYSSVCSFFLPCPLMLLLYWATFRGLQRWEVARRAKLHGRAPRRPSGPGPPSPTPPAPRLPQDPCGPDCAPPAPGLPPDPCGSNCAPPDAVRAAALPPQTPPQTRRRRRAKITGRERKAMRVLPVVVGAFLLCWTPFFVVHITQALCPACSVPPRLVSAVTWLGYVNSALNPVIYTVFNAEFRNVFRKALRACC
The experiment in a line: D4 receptor binding: displacement of 3H-spiperone. Particulars: D4 affinity; 3H-spiperone displacement. On the procedure:
as §1
The cells were then centrifuged in a Sorval centrifuge for 10 min, 5000 rpm (GS3 rotor) and the pellets quickly frozen in liquid nitrogen and stored at -80° C. until used in binding assay. When used in the assay, cells were thawed on ice for 20 min and then 1 mL of incubation buffer (50 mM Tris, 1 mM EDTA, 4 mM MgCl2, 5 mM KCl, 1.5 mM CaCl2, 120 mM NaCl, pH7.4) was added. […] Concentration of receptor protein was determined using the Pierce BCA assay.
as §2
The tubes were vortexed and incubated at room temperature for 90 minutes at which time the binding reaction was stopped by filtering. The filters were washed and counted using the same procedure as in the total binding assay described above to give the non-specific binding value (NSB).
as §3, §4, §5

In assay [3] the test system is D4 receptor relative to the D2 receptor. To be noted: currently marketed products; cited from earlier work.
The target in another assay is D4 receptor. To be noted: D4 affinity of currently marketed products; cited from earlier work.

pKi: −log10 of the molar value.

T1 sequence (P14416 with tags, fused parts or gaps DEL242-270): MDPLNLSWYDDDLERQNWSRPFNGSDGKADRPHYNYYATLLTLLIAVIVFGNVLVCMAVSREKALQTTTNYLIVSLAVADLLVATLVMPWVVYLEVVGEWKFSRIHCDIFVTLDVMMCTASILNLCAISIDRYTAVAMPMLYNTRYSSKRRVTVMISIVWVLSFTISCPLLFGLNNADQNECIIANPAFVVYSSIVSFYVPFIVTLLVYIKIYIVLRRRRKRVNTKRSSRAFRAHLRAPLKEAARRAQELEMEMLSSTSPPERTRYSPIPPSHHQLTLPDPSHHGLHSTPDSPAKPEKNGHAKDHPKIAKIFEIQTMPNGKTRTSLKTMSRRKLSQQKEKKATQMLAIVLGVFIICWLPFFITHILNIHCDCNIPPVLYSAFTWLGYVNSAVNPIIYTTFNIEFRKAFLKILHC

Regarding `Clc1ccc2c(c1)N=C(N1CCN3CCCC[C@H]3C1)c1ccccc1O2` [8-chloro-11-[(S)-1,4-diazabicyclo[4.4.0]decan-4-yl]-dibenzo[b,f]-1,4-oxazepine], in assay [1], the D2/D4 worked out at 40. Moreover, on human D4 receptors, the inhibition at 1 µM came out at 52% and the inhibition at 10 µM stood at 93%. This compound also had a pKi in assay [2] of 9.00.

Regarding `Clc1ccc2c(c1)N=C(N1CCN3C[C@@H](OCc4ccccc4)C[C@H]3C1)c1ccccc1O2` [8-chloro-11-[(6S,8S)-8-benzyloxy-1,4-diazabicyclo[4.3.0]non-4-yl]-dibenzo[b,f]-1,4-oxazepine], the D2/D4 in assay [1] was determined as 25.6. The pKi in assay [2] was 7.62.

On to `Clc1ccc2c(c1)N=C(N1CCN3CCCC[C@@H]3C1)c1ccccc1O2` [8-chloro-11-[(R)-1,4-diazabicyclo[4.4.0]decan-4-yl]-dibenzo[b,f]-1,4-oxazepine], for which the D2/D4 in assay [1] is given as 4.1. The pKi in assay [2] is 6.40.

Take `O[C@H]1C[C@H]2CN(C3=Nc4cc(Cl)ccc4Oc4ccccc43)CCN2C1` [8-chloro-11-[(6S,8S)-8-hydroxy-1,4-diazabicyclo[4.3.0]non-4-yl]-dibenzo[b,f]-1,4-oxazepine]: the D2/D4 in assay [1] is reported as 18.2. The same compound had a pKi in assay [2] of 7.55.

As to `Clc1ccc2c(c1)N=C(N1CCN3CCC[C@H]3C1)c1ccccc1O2` [8-chloro-11-[(S)-1,4-diazabicyclo[4.3.0]non-4-yl]-dibenzo[b,f]-1,4-oxazepine], the D2/D4 in assay [1] was determined as 104.5. For the same compound, at human D4 receptors, the inhibition at 1 µM was determined as 23% and the inhibition at 10 µM turned out to be 48%. Also, the pKi in assay [2] was 8.92.

In the case of `CN1CCN(C2=Nc3cc(Cl)ccc3Oc3ccccc32)CC1` [isoloxapine], the “preference for binding the D4 receptor relative to the D2 receptor” value in assay [3] is recorded as “about 10 fold”. Besides, the pKi at D4 receptor is roughly 7.70.

`Clc1ccc2c(c1)N=C(N1CCN3CCCCC3C1)c1ccccc1O2` (racemic) [8-chloro-11-[(R,S)-1,4-diazabicyclo[4.4.0]decan-4-yl]-dibenzo[b,f]-1,4-oxazepine]: in assay [1], the D2/D4 stood at 6.8. The compound further showed a pKi in assay [2] of 7.80.

As for `Clc1ccc2c(c1)N=C(N1CCN3CCC[C@@H]3C1)c1ccccc1O2` [8-chloro-11-[(R)-1,4-diazabicyclo[4.3.0]non-4-yl]-dibenzo[b,f]-1,4-oxazepine], in assay [1], the D2/D4 is given as 32.2. In assay [2], the pKi is 7.74.
